Where a name gives a salt, the structure may show the parent alone.

What is called IC50 is the concentration that gives 50% inhibition. Low readings indicate greater potency in that assay, high ones weaker potency in that assay.

The target in the assay is pre-formed polyQ46 or Exon1-polyQ46 aggregates (mHTT) (Homo sapiens, UniProt P42858, INS38QQQQQQQQQQQQQQQQQQQQQQQQQ). The experiment in a line: Q46_RBA radioligand binding assay (displacement of [3H]-radioligand). As to the method: Binding of W to mHTT. A radioligand binding assay was developed to screen for compounds which can efficiently displace a radioligand detailed elsewhere (see, e.g., U.S. Patent Publication No. from US 2017/0292150) pre-formed polyQ46 or Exon1-polyQ46 aggregates (Q46_RBA).
Aggregation of polyQ peptides is initiated by cleavage of the tag from a GST-polyQ46 or from a MBP-Exon1-polyQ46 fusion protein. The pre-formed aggregates are then incubated with compounds which compete with the [^3H]-radiolabelled ligand for binding to the aggregates. The readout is a scintillation based MicroBeta measurement of radioligand bound to aggregates. The activity was indicated as: +++, <100 nM; ++, 100-500 nM, +, >500 nM.
Background: Loss of bound radioactivity is the signal in a displacement assay; it reports binding, not function.
Consider `CC(C)C[C@H](NC(=O)[C@@H](O)[C@H](N)Cc1ccccc1)C(=O)NCCOCCOCCOc1ccc(C(=O)Nc2ccc3oc(-c4ccc(=O)n(C)n4)nc3c2)nc1` (stereo in doubt) [Compound 13], for which the IC50 is < 100 nM. As for `CNc1c(-c2cn3c(n2)sc2cc(OCCOCCOCCOCCOCC(=O)N[C@H](C(=O)N4C[C@H](O)C[C@H]4C(=O)NCc4ccc(-c5scnc5C)cc4)C(C)(C)C)ccc23)nc2cc(C#N)ccn12` [Compound 4, (2S,4R)-1-((S)-2-(tert-butyl)-17-((2-(7-cyano-3-(methylamino)-imidazo[1,2-a]pyridin-2-yl)benzo[d]imidazo[2,1-b]thiazol-7-yl)oxy)-4-oxo-6,9,12,15-tetraoxa-3-azaheptadecan-1-oyl)-4-hydroxy-N-(4-(4-methylthiazol-5-yl)benzyl)-pyrrolidine-2-carboxamide], the IC50 fell in the range of 100 to 500 nM. `CNc1c(-c2cn3c(n2)sc2cc(OCCOc4cc(-c5scnc5C)ccc4CNC(=O)[C@@H]4C[C@@H](O)CN4C(=O)[C@H](C(C)C)N4Cc5ccccc5C4=O)ccc23)nc2cc(C#N)ccn12` [Compound 5, (2S,4R)—N-(2-(2-((2-(7-cyano-3-(methylamino)imidazo[1,2-a]pyridin-2-yl)benzo[d]imidazo[2,1-b]thiazol-7-yl)oxy)ethoxy)-4-(4-methylthiazol-5-yl)benzyl)-4-hydroxy-1-((S)-3-methyl-2-(1-oxoisoindolin-2-yl)butanoyl)pyrrolidine-2-carboxamide]: the IC50 lay within 100 to 500 nM. Turning to `CNc1c(-c2cn3c(n2)sc2cc(OCCOCCOc4cc(-c5scnc5C)ccc4CNC(=O)[C@@H]4C[C@@H](O)CN4C(=O)[C@H](C(C)C)N4Cc5ccccc5C4=O)ccc23)nc2cc(C#N)ccn12` [Compound 6], the IC50 lay within 100 to 500 nM. On to `CNc1c(-c2cn3c(n2)sc2cc(OCCOCCOCCOc4cc(-c5scnc5C)ccc4CNC(=O)[C@@H]4C[C@@H](O)CN4C(=O)[C@H](C(C)C)N4Cc5ccccc5C4=O)ccc23)nc2cc(C#N)ccn12` [Compound 7], for which the IC50 lay in the range of 100 to 500 nM. `CNc1c(-c2cn3c(n2)sc2cc(OCCOCCOCCOCCOc4cc(-c5scnc5C)ccc4CNC(=O)[C@@H]4C[C@@H](O)CN4C(=O)[C@H](C(C)C)N4Cc5ccccc5C4=O)ccc23)nc2cc(C#N)ccn12` [Compound 8] came in with an IC50 of 100 to 500 nM. As for `CNc1c(-c2cn3c(n2)sc2cc(OCCOCCNc4cccc5c4C(=O)N(C4CCC(=O)NC4=O)C5=O)ccc23)nc2cc(C#N)ccn12` (stereo not drawn) [Compound 9], the IC50 was < 100 nM.

For `CC(C)C[C@H](NC(=O)[C@@H](O)[C@H](N)Cc1ccccc1)C(=O)NCCOCCOc1ccc(C(=O)Nc2ccc3oc(-c4ccc(=O)n(C)n4)nc3c2)nc1` [Compound 12], the half-maximal inhibitory concentration (IC50) is < 100 nM. For the compound `CC(C)C[C@H](NC(=O)[C@@H](O)[C@H](N)Cc1ccccc1)C(=O)NCCOCCOCCOCCOc1ccc(C(=O)Nc2ccc3oc(-c4ccc(=O)n(C)n4)nc3c2)nc1` [Compound 14], the IC50 is < 100 nM.

As to `CC(C)C[C@H](NC(=O)[C@@H](O)[C@H](N)Cc1ccccc1)C(=O)NCCOCCOCCOCCOCCOc1ccc(C(=O)Nc2ccc3oc(-c4ccc(=O)n(C)n4)nc3c2)nc1` [Compound 15], the half-maximal inhibitory concentration (IC50) was < 100 nM. As for `CC(C)C[C@H](NC(=O)[C@@H](O)[C@H](N)Cc1ccccc1)C(=O)NCCOCCOCCOCCOCCOCCOc1ccc(C(=O)Nc2ccc3oc(-c4ccc(=O)n(C)n4)nc3c2)nc1` [Compound 16], the IC50 is < 100 nM. For `CC(C)C[C@H](NC(=O)[C@@H](O)[C@H](N)Cc1ccccc1)C(=O)NCCOCCOCCOCCOCCOCCOCCOCCOCCOc1ccc(C(=O)Nc2ccc3oc(-c4ccc(=O)n(C)n4)nc3c2)nc1` [Compound 17], the IC50 was < 100 nM. In the case of `Cc1ncsc1-c1ccc(CNC(=O)[C@H]2C[C@H](O)CN2C(=O)[C@H](NC(=O)CCOCCOCCOCCOCCOCCOCCOCCOCCOCCOCCOCCOCCOCCOCCOCCOCCOc2ccc(C(=O)Nc3ccc4oc(-c5ccc(=O)n(C)n5)nc4c3)nc2)C(C)(C)C)cc1` [Compound 27], the IC50 was 100 to 500 nM.

Consider `Cc1ncsc1-c1ccc(CNC(=O)[C@@H]2C[C@@H](O)CN2C(=O)[C@@H](NC(=O)COCCOc2ccc(C(=O)Nc3ccc4oc(-c5ccc(=O)n(C)n5)nc4c3)nc2)C(C)(C)C)cc1` [Compound 29], for which the IC50 was < 100 nM.

Regarding `Cn1nc(-c2nc3cc(NC(=O)c4ccc(OCCOCCNc5cccc6c5C(=O)N(C5CCC(=O)NC5=O)C6=O)cn4)ccc3o2)ccc1=O` (stereo not drawn) [Compound 35], the IC50 is < 100 nM.

For `Cc1ncsc1-c1ccc(CNC(=O)[C@H]2C[C@H](O)CN2C(=O)[C@H](NC(=O)CCOCCOCCOCCOCCOCCOc2ccc(C(=O)Nc3ccc4oc(-c5ccc(=O)n(C)n5)nc4c3)nc2)C(C)(C)C)cc1` [Compound 41], the IC50 is < 100 nM. On to `CC(C)C[C@H](NC(=O)[C@@H](O)[C@H](N)Cc1ccccc1)C(=O)NCCOCCOCCOc1ccc(COc2ccc3oc(-c4ccc(=O)n(C)n4)nc3c2)nc1` [Compound 49, (2S)-2-[(2S,3R)-3-Azaniumyl-2-hydroxy-4-phenylbutanamido]-4-methyl-N-{2-[2-(2-{[6-({[2-(1-methyl-6-oxo-1,6-dihydropyridazin-3-yl)-1,3-benzoxazol-5-yl]oxy}methyl)pyridin-3-yl]oxy}ethoxy)ethoxy]ethyl}pentanamide formate], for which the IC50 was < 100 nM. As for `COc1ccc(C(=O)Nc2ccc3oc(-c4ccc(=O)n(CCOCCOCCNC(=O)[C@H](CC(C)C)NC(=O)[C@@H](O)[C@H](N)Cc5ccccc5)n4)nc3c2)nc1` [Compound 50, N-(2-{1-[2-(2-{2-[(2S)-2-[(2S,3R)-3-Amino-2-hydroxy-4-phenylbutanamido]-4-methylpentanamido]ethoxy}ethoxy)ethyl]-6-oxo-1,6-dihydropyridazin-3-yl}-1,3-benzoxazol-5-yl)-5-methoxypyridine-2-carboxamide], the IC50 was < 100 nM. Next, `Cc1ncsc1-c1ccc(CNC(=O)[C@H]2C[C@H](O)CN2C(=O)[C@H](NC(=O)COCCOc2ccc(C(=O)Nc3ccc4oc(-c5ccc(=O)n(C)n5)nc4c3)nc2)C(C)(C)C)cc1` [Compound 51, 5-[2-({[(2R)-1-[(2R,4S)-4-Hydroxy-2-({[4-(4-methyl-1,3-thiazol-5-yl)phenyl]methyl}carbamoyl)pyrrolidin-1-yl]-3,3-dimethyl-1-oxobutan-2-yl]carbamoyl}methoxy)ethoxy]-N-[2-(1-methyl-6-oxo-1,6-dihydropyridazin-3-yl)-1,3-benzoxazol-5-yl]pyridine-2-carboxamide]: < 100 nM; `CC(C)C[C@H](NC(=O)CCCc1ccccc1)C(=O)NCCOCCOCCOc1ccc(COc2ccc3oc(-c4ccc(=O)n(C)n4)nc3c2)nc1` [Compound 52, (2S)-4-Methyl-N-{2-[2-(2-{[6-({[2-(1-methyl-6-oxo-1,6-dihydropyridazin-3-yl)-1,3-benzoxazol-5-yl]oxy}methyl)pyridin-3-yl]oxy}ethoxy)ethoxy]ethyl}-2-(4-phenylbutanamido)pentanamide]: < 100 nM; `CC(C)C[C@H](NC(=O)[C@@H](O)[C@H](N)Cc1ccccc1)C(=O)NCCOCCOCCOc1ccc(NC(=O)c2ccn3c(n2)nc2ccccc23)cn1` [Compound 59, N-{6-[2-(2-{2-[(2S)-2-[(2S,3R)-3-amino-2-hydroxy-4-phenylbutanamido]-4-methylpentanamido]ethoxy}ethoxy)ethoxy]pyridin-3-yl}-1,8,10-triazatricyclo[7.4.0.0^2,7]trideca-2,4,6,8,10,12-hexaene-11-carboxamide]: < 100 nM.

Turning to `CC(C)C[C@H](NC(=O)[C@@H](O)[C@H](N)Cc1ccccc1)C(=O)NCCOCCOCCNc1ccc(NC(=O)c2ccn3c(n2)nc2ccccc23)cn1` [Compound 60, N-(6-{[2-(2-{2-[(2S)-2-[(2S,3R)-3-azaniumyl-2-hydroxy-4-phenylbutanamido]-4-methylpentanamido]ethoxy}ethoxy)ethyl]amino}pyridin-3-yl)-1,8,10-triazatricyclo[7.4.0.0^2,7]trideca-2,4,6,8,10,12-hexaene-11-carboxamide formate], the IC50 was < 100 nM. Next, `CC(C)C[C@H](NC(=O)[C@@H](O)[C@H](N)Cc1ccccc1)C(=O)NCCOCCOCCOc1ccc(C(=O)Nc2ccc3oc(-c4cccnc4)nc3c2)nc1` [Compound 61]: < 100 nM; `CC(C)C[C@H](NC(=O)[C@@H](O)[C@H](N)Cc1ccccc1)C(=O)NCCOCCOCCOCCOc1ccc(C(=O)Nc2ccc3oc(-c4cccnc4)nc3c2)nc1` [Compound 62, 5-{2-[2-(2-{2-[(2S)-2-[(2S,3R)-3-Azaniumyl-2-hydroxy-4-phenylbutanamido]-4-methylpentanamido]ethoxy}ethoxy)ethoxy]ethoxy}-N-[2-(pyridin-3-yl)-1,3-benzoxazol-5-yl]pyridine-2-carboxamide diformate]: < 100 nM; `Cc1ccc2nc(-c3ccc(NCCOCCOCCOc4cccc5c4C(=O)N(C4CCC(=O)NC4=O)C5=O)cc3)sc2c1` (stereo not drawn) [Compound 63]: < 100 nM. Take `Cc1ccc2nc(-c3ccc(NCCOCCOCC(=O)N[C@H](C(=O)N4C[C@H](O)C[C@H]4C(=O)NCc4ccc(-c5scnc5C)cc4)C(C)(C)C)cc3)sc2c1` [Compound 64]: the IC50 is > 500 nM. On to `Cc1ccc2nc(-c3ccc(NCCOCCOCCNc4cccc5c4C(=O)N(C4CCC(=O)NC4=O)C5=O)cc3)sc2c1` (stereo not drawn) [Compound 65], for which the IC50 was 100 to 500 nM.

On to `Cc1ccc2nc(-c3ccc(NC(=O)COCCOCCNC(=O)[C@H](CC(C)C)NC(=O)[C@@H](O)[C@H](N)Cc4ccccc4)cc3)sc2c1` [Compound 66], for which the half-maximal inhibitory concentration (IC50) was 100 to 500 nM. In turn, `Cc1ccc2nc(-c3ccc(NCCOCCOCCOc4cc(-c5scnc5C)ccc4CNC(=O)C4C[C@@H](O)CN4C(=O)[C@H](C(C)C)N4Cc5ccccc5C4=O)cc3)sc2c1` (stereo partly drawn) [Compound 67] came in with an IC50 of 100 to 500 nM.

As to `Cc1ccc2nc(-c3ccc(NCCOCCOCCOCCNc4cccc5c4C(=O)N(C4CCC(=O)NC4=O)C5=O)cc3)sc2c1` (stereo not drawn) [Compound 68], the IC50 was 100 to 500 nM.

(Values after patent publication US11389438B2 (CHDI Foundation, Inc., priority 2019, dated 2022).)
